Results reported in the NIST ThermoML archive (doi:10.1016/j.jct.2007.07.005).

Experiment: xn = mol fraction of the nth substance listed
Conditions: Fluid (supercritical or subcritical phases), vibrating tube

CCCCCO [pentan-1-ol] + O=C=O
Conditions | mass density [kg/m3]
342.87 K, 20033 kPa, x2 = 0.4651 | 814.31
342.87 K, 21025 kPa, x2 = 0.4651 | 815.82
342.87 K, 21037 kPa, x2 = 0.3624 | 811.12
342.87 K, 21039 kPa, x2 = 0.7274 | 812.39
342.87 K, 21983 kPa, x2 = 0.4651 | 817.26
342.87 K, 21990 kPa, x2 = 0.3624 | 812.11
342.87 K, 22001 kPa, x2 = 0.7274 | 815.49
342.87 K, 23014 kPa, x2 = 0.4651 | 818.77
342.87 K, 23015 kPa, x2 = 0.7274 | 818.69
342.87 K, 23033 kPa, x2 = 0.3624 | 813.18
342.87 K, 24005 kPa, x2 = 0.3624 | 814.16
342.87 K, 24023 kPa, x2 = 0.4651 | 820.23
342.87 K, 24099 kPa, x2 = 0.7274 | 821.95
342.87 K, 25028 kPa, x2 = 0.3624 | 815.18
342.88 K, 3034 kPa, x2 = 0.0816 | 781.33
342.88 K, 4000 kPa, x2 = 0.0816 | 782.24
342.88 K, 4969 kPa, x2 = 0.0816 | 783.19
342.88 K, 5981 kPa, x2 = 0.0816 | 784.14
342.88 K, 7023 kPa, x2 = 0.0816 | 785.12
342.88 K, 8012 kPa, x2 = 0.0816 | 786.04
342.88 K, 9030 kPa, x2 = 0.0816 | 786.97
342.88 K, 10026 kPa, x2 = 0.0816 | 787.86
342.88 K, 10992 kPa, x2 = 0.0816 | 788.72
342.88 K, 11981 kPa, x2 = 0.0816 | 789.59
342.88 K, 13062 kPa, x2 = 0.0816 | 790.54
342.88 K, 14001 kPa, x2 = 0.9216 | 654.38
342.88 K, 14013 kPa, x2 = 0.0816 | 791.33
342.88 K, 15014 kPa, x2 = 0.9216 | 679.88
342.88 K, 15025 kPa, x2 = 0.0816 | 792.19
342.88 K, 15995 kPa, x2 = 0.0816 | 793.03
342.88 K, 16009 kPa, x2 = 0.9216 | 699.02
342.88 K, 16999 kPa, x2 = 0.0816 | 793.86
342.88 K, 17032 kPa, x2 = 0.9216 | 715.18
342.88 K, 18002 kPa, x2 = 0.9216 | 728.34
342.88 K, 18009 kPa, x2 = 0.0816 | 794.69
342.88 K, 19029 kPa, x2 = 0.0816 | 795.51
342.88 K, 19057 kPa, x2 = 0.9216 | 740.82
342.88 K, 19987 kPa, x2 = 0.0816 | 796.28
342.88 K, 19996 kPa, x2 = 0.9216 | 750.81
342.88 K, 21039 kPa, x2 = 0.0816 | 797.11
342.88 K, 21039 kPa, x2 = 0.9216 | 760.88
342.88 K, 21996 kPa, x2 = 0.0816 | 797.87
342.88 K, 22026 kPa, x2 = 0.9216 | 769.6
342.88 K, 22991 kPa, x2 = 0.0816 | 798.65
342.88 K, 24056 kPa, x2 = 0.0816 | 799.48
342.88 K, 25041 kPa, x2 = 0.0816 | 800.25
342.89 K, 14024 kPa, x2 = 0.8573 | 720.89
342.89 K, 15020 kPa, x2 = 0.8573 | 735.53
342.89 K, 16007 kPa, x2 = 0.8573 | 747
342.89 K, 17031 kPa, x2 = 0.8573 | 757.08
342.89 K, 18025 kPa, x2 = 0.8573 | 765.71
342.89 K, 19016 kPa, x2 = 0.8573 | 773.47
342.89 K, 20036 kPa, x2 = 0.8573 | 780.77
342.89 K, 21016 kPa, x2 = 0.8573 | 787.25
342.89 K, 21989 kPa, x2 = 0.8573 | 793.31
342.89 K, 23049 kPa, x2 = 0.8573 | 799.42
342.89 K, 24035 kPa, x2 = 0.8573 | 804.78
342.89 K, 24945 kPa, x2 = 0.8573 | 809.51
342.95 K, 13102 kPa, x2 = 0.6054 | 801.79
342.95 K, 14086 kPa, x2 = 0.6054 | 804.2
342.95 K, 15021 kPa, x2 = 0.6054 | 806.46
342.95 K, 16051 kPa, x2 = 0.6054 | 808.84
342.95 K, 17053 kPa, x2 = 0.6054 | 811.1
342.95 K, 18061 kPa, x2 = 0.6054 | 813.31
342.95 K, 19049 kPa, x2 = 0.6054 | 815.42
342.95 K, 20084 kPa, x2 = 0.6054 | 817.54
342.95 K, 21075 kPa, x2 = 0.6054 | 819.56
342.95 K, 22070 kPa, x2 = 0.6054 | 821.54
342.95 K, 23069 kPa, x2 = 0.6054 | 823.48
342.95 K, 24068 kPa, x2 = 0.6054 | 825.37
342.95 K, 25106 kPa, x2 = 0.6054 | 827.29
342.96 K, 7006 kPa, x2 = 0.1347 | 785.93
342.96 K, 8027 kPa, x2 = 0.1347 | 786.83
342.96 K, 9036 kPa, x2 = 0.1347 | 787.79
342.96 K, 10053 kPa, x2 = 0.1347 | 788.74
342.96 K, 11003 kPa, x2 = 0.1347 | 789.61
342.96 K, 12025 kPa, x2 = 0.1347 | 790.55
342.96 K, 13042 kPa, x2 = 0.1347 | 791.48
342.96 K, 14006 kPa, x2 = 0.1347 | 792.33
342.96 K, 15009 kPa, x2 = 0.1347 | 793.22
342.96 K, 16036 kPa, x2 = 0.1347 | 794.12
342.96 K, 17009 kPa, x2 = 0.1347 | 794.98
342.96 K, 18011 kPa, x2 = 0.1347 | 795.84
342.96 K, 19019 kPa, x2 = 0.1347 | 796.7
342.96 K, 20016 kPa, x2 = 0.1347 | 797.55
342.96 K, 20998 kPa, x2 = 0.1347 | 798.37
342.96 K, 22010 kPa, x2 = 0.1347 | 799.2
342.96 K, 23002 kPa, x2 = 0.1347 | 800.03
342.96 K, 24085 kPa, x2 = 0.1347 | 800.92
342.96 K, 25038 kPa, x2 = 0.1347 | 801.69
352.71 K, 508 kPa, x2 = 0 | 768.15
352.71 K, 1011 kPa, x2 = 0 | 768.66
352.71 K, 1995 kPa, x2 = 0 | 769.61
352.71 K, 3014 kPa, x2 = 0 | 770.57
352.71 K, 3998 kPa, x2 = 0 | 771.49
352.71 K, 5022 kPa, x2 = 0 | 772.45
352.71 K, 6012 kPa, x2 = 0 | 773.35
352.71 K, 7006 kPa, x2 = 0 | 774.26
352.71 K, 8024 kPa, x2 = 0 | 775.17
352.71 K, 9005 kPa, x2 = 0 | 776.05
352.71 K, 10016 kPa, x2 = 0 | 776.94
352.71 K, 11026 kPa, x2 = 0 | 777.81
352.71 K, 12001 kPa, x2 = 0 | 778.65
352.71 K, 13002 kPa, x2 = 0 | 779.5
352.71 K, 14026 kPa, x2 = 0 | 780.35
352.71 K, 15000 kPa, x2 = 0 | 781.18
352.71 K, 16005 kPa, x2 = 0 | 781.98
352.71 K, 17023 kPa, x2 = 0 | 782.81
352.71 K, 18003 kPa, x2 = 0 | 783.59
352.71 K, 19049 kPa, x2 = 0 | 784.43
352.71 K, 20035 kPa, x2 = 0 | 785.2
352.71 K, 21002 kPa, x2 = 0 | 785.96
352.71 K, 21995 kPa, x2 = 0 | 786.73
352.71 K, 23020 kPa, x2 = 0 | 787.52
352.71 K, 24045 kPa, x2 = 0 | 788.32
352.71 K, 25009 kPa, x2 = 0 | 789.05
352.73 K, 17393 kPa, x2 = 0.9757 | 574.15
352.73 K, 18036 kPa, x2 = 0.9757 | 591.88
352.73 K, 19032 kPa, x2 = 0.9757 | 616.27
352.73 K, 20013 kPa, x2 = 0.9757 | 637.17
352.73 K, 21057 kPa, x2 = 0.9757 | 656.66
352.73 K, 22011 kPa, x2 = 0.9757 | 672.48
352.73 K, 23064 kPa, x2 = 0.9757 | 688.28
352.73 K, 24053 kPa, x2 = 0.9757 | 701.67
